Among the data in ChEMBL document CHEMBL1909046, “DrugMatrix in vitro pharmacology data” are IC50 and Ki values, retold here.

Assay [1] addresses T1, Amine oxidase [flavin-containing] A (Homo sapiens, UniProt P21397).
T1 sequence (P21397 whole entry): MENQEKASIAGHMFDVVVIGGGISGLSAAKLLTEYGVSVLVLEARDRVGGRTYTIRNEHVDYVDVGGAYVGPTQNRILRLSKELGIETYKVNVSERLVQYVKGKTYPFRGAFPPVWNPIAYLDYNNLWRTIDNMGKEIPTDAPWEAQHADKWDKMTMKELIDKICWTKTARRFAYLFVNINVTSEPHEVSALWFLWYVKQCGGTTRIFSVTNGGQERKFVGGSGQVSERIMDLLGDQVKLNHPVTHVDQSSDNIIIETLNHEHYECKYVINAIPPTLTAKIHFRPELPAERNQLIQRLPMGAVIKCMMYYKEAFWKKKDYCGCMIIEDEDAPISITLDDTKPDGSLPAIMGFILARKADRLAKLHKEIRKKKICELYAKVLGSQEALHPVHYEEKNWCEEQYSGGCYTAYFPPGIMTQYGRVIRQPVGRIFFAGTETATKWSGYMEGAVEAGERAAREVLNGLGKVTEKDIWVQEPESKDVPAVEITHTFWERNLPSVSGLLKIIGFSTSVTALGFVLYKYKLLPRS
Kind of assay: DRUGMATRIX: Monoamine Oxidase MAO-A enzyme inhibition (substrate: Kynuramine). Details: species or system BTI-TN-5B1-4. To be noted: bti-tn-5b1-4; Not Active = under 50% inhibition at 10 µM.

Assay [2] in a line: DRUGMATRIX: Imidazoline I2, Central radioligand binding (ligand: [3H] Idazoxan). Conditions: Not Active = under 50% inhibition at 10 µM. Type of assay: cell membranes, Rattus norvegicus, Wistar, Cerebral cortex, Membrane.
Another assay concerns the target T2, Adenosine receptor A3 (Homo sapiens, UniProt P0DMS8).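 Also: radioligand binding assay with AB-MECA serving as the labeled ligand; in other assays of this panel Not Active means under 50% inhibition at 10 µM.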
T2 sequence (P0DMS8 whole entry): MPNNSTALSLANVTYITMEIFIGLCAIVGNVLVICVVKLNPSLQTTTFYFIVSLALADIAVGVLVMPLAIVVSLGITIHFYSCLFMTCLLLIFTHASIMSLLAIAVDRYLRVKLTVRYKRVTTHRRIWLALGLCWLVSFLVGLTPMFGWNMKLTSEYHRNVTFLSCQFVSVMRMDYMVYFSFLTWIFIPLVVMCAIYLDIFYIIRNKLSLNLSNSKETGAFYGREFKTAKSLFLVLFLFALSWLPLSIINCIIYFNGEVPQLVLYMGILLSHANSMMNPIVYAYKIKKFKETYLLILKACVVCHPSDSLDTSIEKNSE
Type of assay: cell membranes, CHO-K1, Membrane. Conditions: cho-k1.

The next assay concerns the target Melanocortin receptor 4 (Homo sapiens, UniProt P32245). Type of assay: cell membranes, HEK293, Membrane. To be noted: hek293. Also: in other assays of this panel Not Active means under 50% inhibition at 10 µM.
In assay [3] the target is Tyrosine-protein kinase Lck (Homo sapiens, UniProt P06239). Kind of assay: DRUGMATRIX: Protein Tyrosine Kinase, LCK enzyme inhibition (substrate: Poly(Glu:Tyr)). It is filed as cell-based, Insect cells. Conditions: insect cells; Not Active = under 50% inhibition at 10 µM.
A further assay addresses Histamine H2 receptor (Homo sapiens, UniProt P25021). Type of assay: cell membranes, CHO-K1, Membrane. Conditions: cho-k1.

Tyrosine-protein kinase Lck, sequence (P06239 whole entry): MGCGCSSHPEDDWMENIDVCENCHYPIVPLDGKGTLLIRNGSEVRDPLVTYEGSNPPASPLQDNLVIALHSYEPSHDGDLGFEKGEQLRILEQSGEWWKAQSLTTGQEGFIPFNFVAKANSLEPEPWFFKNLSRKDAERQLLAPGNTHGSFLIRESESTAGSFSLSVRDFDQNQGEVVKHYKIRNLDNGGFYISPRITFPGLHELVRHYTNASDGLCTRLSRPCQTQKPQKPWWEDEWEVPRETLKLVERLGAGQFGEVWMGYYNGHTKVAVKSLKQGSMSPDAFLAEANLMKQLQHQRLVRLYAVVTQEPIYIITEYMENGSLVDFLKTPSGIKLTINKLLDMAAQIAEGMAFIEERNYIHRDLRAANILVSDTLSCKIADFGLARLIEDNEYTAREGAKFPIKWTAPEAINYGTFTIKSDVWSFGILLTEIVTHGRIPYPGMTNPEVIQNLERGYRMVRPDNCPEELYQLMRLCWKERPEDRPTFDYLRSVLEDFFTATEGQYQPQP
Histamine H2 receptor, sequence (P25021 whole entry): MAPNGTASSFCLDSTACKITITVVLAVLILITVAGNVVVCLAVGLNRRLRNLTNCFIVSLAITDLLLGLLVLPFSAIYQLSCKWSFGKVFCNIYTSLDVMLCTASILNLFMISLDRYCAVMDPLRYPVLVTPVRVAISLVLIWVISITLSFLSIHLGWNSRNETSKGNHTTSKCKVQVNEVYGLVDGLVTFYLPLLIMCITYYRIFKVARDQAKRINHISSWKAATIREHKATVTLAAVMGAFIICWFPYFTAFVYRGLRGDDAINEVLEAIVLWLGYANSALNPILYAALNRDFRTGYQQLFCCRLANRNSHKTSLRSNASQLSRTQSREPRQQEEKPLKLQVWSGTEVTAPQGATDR
Melanocortin receptor 4, sequence (P32245 whole entry): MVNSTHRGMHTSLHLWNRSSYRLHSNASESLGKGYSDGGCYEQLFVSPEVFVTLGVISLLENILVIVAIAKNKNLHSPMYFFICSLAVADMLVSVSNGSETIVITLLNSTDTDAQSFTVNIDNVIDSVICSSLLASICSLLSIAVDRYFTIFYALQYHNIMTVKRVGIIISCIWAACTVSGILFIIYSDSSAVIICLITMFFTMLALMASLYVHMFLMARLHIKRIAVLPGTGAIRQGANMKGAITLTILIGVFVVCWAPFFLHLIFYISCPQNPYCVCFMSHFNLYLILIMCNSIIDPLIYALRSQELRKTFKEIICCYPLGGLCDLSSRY

Usually IC50 stands for the concentration needed to halve the response being measured. Usually Ki stands for the dissociation constant of the complex between target and ligand, obtained from inhibition or displacement. `CC(C)[C@@]1(NC(=O)[C@@H]2C[C@@H]3c4cccc5[nH]cc(c45)C[C@H]3N(C)C2)O[C@@]2(O)[C@@H]3CCCN3C(=O)[C@H](Cc3ccccc3)N2C1=O.CS(=O)(=O)O` [DIHYDROERGOCRISTINE MESYLATE]: the IC50 entry in assay [1] was “Not Active”; in assay [2] (read-out: IC50), 5.43 nM; against Adenosine receptor A3 it was “Not Active”; at Melanocortin receptor 4, “Not Active”; in assay [3] it was “Not Active”; against Histamine H2 receptor it was “Not Active”. In assay [2] (read-out: Ki), the Ki was 3.62 nM.

Regarding `CC(=O)O[C@@]12CO[C@@H]1C[C@H](O)[C@@]1(C)C(=O)[C@H](O)C3=C(C)[C@@H](OC(=O)[C@H](O)[C@@H](NC(=O)OC(C)(C)C)c4ccccc4)C[C@@](O)([C@@H](OC(=O)c4ccccc4)[C@H]21)C3(C)C.O.O.O` [DOCETAXEL], the concentration for half-maximal inhibition (IC50) entry (in assay [1]; in assay [2]; against Adenosine receptor A3; against Melanocortin receptor 4; in assay [3]; against Histamine H2 receptor) was “Not Active” throughout. Further, the inhibitory constant (Ki) result in assay [2] is “Not Active”.

As for `COc1cc2nc(N3CCN(C(=O)C4COc5ccccc5O4)CC3)nc(N)c2cc1OC` (stereo not drawn) [DOXAZOSIN], the IC50 result (in assay [1]; in assay [2]; against Adenosine receptor A3; at Melanocortin receptor 4; in assay [3]; against Histamine H2 receptor) was “Not Active” throughout. The Ki entry in assay [2] is “Not Active”.

In the case of `C[C@H]1c2cccc(O)c2C(=O)C2=C(O)[C@]3(O)C(=O)C(C(N)=O)=C(O)[C@@H](N(C)C)[C@@H]3[C@@H](O)[C@@H]21.O` [DOXYCYCLINE], the 50% inhibitory concentration (IC50) entry (in assay [1]; in assay [2]; against Adenosine receptor A3; against Melanocortin receptor 4; in assay [3]; at Histamine H2 receptor) was “Not Active” each time. For the same molecule, the Ki result in assay [2] is on record as “Not Active”.

Regarding `O=C(CCCN1CC=C(n2c(=O)[nH]c3ccccc32)CC1)c1ccc(F)cc1` [DROPERIDOL], the 50% inhibitory concentration (IC50) result in assay [1] was “Not Active”; in assay [2] (read-out: IC50), 2850 nM; at Adenosine receptor A3 it was “Not Active”; against Melanocortin receptor 4, “Not Active”; in assay [3] it was “Not Active”; against Histamine H2 receptor, “Not Active”. For the same molecule, in assay [2] (read-out: Ki), the Ki was determined as 1900 nM.

On to `CC(C)[C@H]1C(=O)N2CCC[C@H]2[C@]2(O)O[C@](NC(=O)[C@@H]3C=C4c5cccc6[nH]cc(c56)C[C@H]4N(C)C3)(C(C)C)C(=O)N12` [ERGOCORNINE], for which the concentration for half-maximal inhibition (IC50) entry in assay [1] was “Not Active”; in assay [2] (read-out: IC50), 4.49 nM; at Adenosine receptor A3 it was “Not Active”; on Melanocortin receptor 4, “Not Active”; in assay [3] it was “Not Active”; against Histamine H2 receptor it was “Not Active”. Moreover, in assay [2] (read-out: Ki), the inhibition constant (Ki) stood at 2.99 nM.

As for `C[C@]12CC[C@@H]3c4ccc(O)cc4CC[C@H]3[C@@H]1CCC2=O` [ESTRONE], the 50% inhibitory concentration (IC50) entry (in assay [1]; in assay [2]; at Adenosine receptor A3; against Melanocortin receptor 4; in assay [3]; at Histamine H2 receptor) was “Not Active” in each case. The inhibitory constant (Ki) result in assay [2] is listed as “Not Active”.

As for `OC(Cn1cncn1)(Cn1cncn1)c1ccc(F)cc1F` [FLUCONAZOLE], the half-maximal inhibitory concentration (IC50) result (in assay [1]; in assay [2]; on Adenosine receptor A3; on Melanocortin receptor 4; in assay [3]; against Histamine H2 receptor) was “Not Active” in each case. Further, in assay [2], the Ki result was “Not Active”.

`CC(C)C(=O)Nc1ccc([N+](=O)[O-])c(C(F)(F)F)c1` [FLUTAMIDE]: the concentration for half-maximal inhibition (IC50) entry (in assay [1]; in assay [2]; on Adenosine receptor A3; against Melanocortin receptor 4; in assay [3]; at Histamine H2 receptor) was “Not Active” each time. The Ki entry in assay [2] was “Not Active”.

As to `N=C(N)NCCN1CCCCCCC1` [GUANETHIDINE], the half-inhibitory concentration (IC50) result (in assay [1]; in assay [2]; at Adenosine receptor A3; at Melanocortin receptor 4; in assay [3]; at Histamine H2 receptor) was “Not Active” each time. Also, the Ki entry in assay [2] is reported as “Not Active”.

On to `CC1(C)O[C@@H]2C[C@H]3[C@@H]4CCC5=CC(=O)CC[C@]5(C)[C@@]4(F)[C@@H](O)C[C@]3(C)[C@]2(C(=O)CCl)O1` [HALCINONIDE], for which the IC50 entry (in assay [1]; in assay [2]; against Adenosine receptor A3; against Melanocortin receptor 4; in assay [3]; against Histamine H2 receptor) was “Not Active” each time. The Ki result in assay [2] is listed as “Not Active”.

With `O=c1[nH]c(=O)n([C@H]2C[C@H](O)[C@@H](CO)O2)cc1I` [IDOXURIDINE], the IC50 entry (in assay [1]; in assay [2]; at Adenosine receptor A3; on Melanocortin receptor 4; in assay [3]; on Histamine H2 receptor) was “Not Active” in each case. The inhibitory constant (Ki) result in assay [2] was “Not Active”.

Take `CC1Cc2ccccc2N1NC(=O)c1ccc(Cl)c(S(N)(=O)=O)c1` (stereo not drawn) [INDAPAMIDE]: the concentration for half-maximal inhibition (IC50) result (in assay [1]; in assay [2]; at Adenosine receptor A3; at Melanocortin receptor 4; in assay [3]; against Histamine H2 receptor) was “Not Active” throughout. Besides, in assay [2], the inhibition constant (Ki) result was “Not Active”.

For `Nc1nc(N)nc(-c2cc(Cl)ccc2Cl)n1.O=C(O)/C=C\C(=O)O` [IRSOGLADINE MALEATE], the IC50 result (in assay [1]; in assay [2]; against Adenosine receptor A3; against Melanocortin receptor 4; in assay [3]; against Histamine H2 receptor) was “Not Active” in each case. For the same molecule, in assay [2], the inhibitory constant (Ki) result was “Not Active”.

Turning to `CCC(C)n1ncn(-c2ccc(N3CCN(c4ccc(OCC5COC(Cn6cncn6)(c6ccc(Cl)cc6Cl)O5)cc4)CC3)cc2)c1=O` (stereo not drawn) [ITRACONAZOLE], the IC50 result (in assay [1]; in assay [2]; against Adenosine receptor A3; against Melanocortin receptor 4; in assay [3]; on Histamine H2 receptor) was “Not Active” throughout. Moreover, the inhibition constant (Ki) result in assay [2] is “Not Active”.

Take `CCCCN1CCCC[C@H]1C(=O)Nc1c(C)cccc1C` [LEVOBUPIVACAINE]: the IC50 entry (in assay [1]; in assay [2]; at Adenosine receptor A3; on Melanocortin receptor 4; in assay [3]; against Histamine H2 receptor) was “Not Active” each time. The Ki result in assay [2] is given as “Not Active”.

Regarding `CCCCc1nc(Cl)c(CO)n1Cc1ccc(-c2ccccc2-c2nnn[nH]2)cc1` [LOSARTAN], the concentration for half-maximal inhibition (IC50) result (in assay [1]; in assay [2]; on Adenosine receptor A3; against Melanocortin receptor 4; in assay [3]; against Histamine H2 receptor) was “Not Active” throughout. Further, the Ki result in assay [2] is “Not Active”.

Consider `Sc1ncnc2nc[nH]c12` [MERCAPTOPURINE ANHYDROUS], for which the IC50 entry (in assay [1]; in assay [2]; at Adenosine receptor A3; against Melanocortin receptor 4; in assay [3]; against Histamine H2 receptor) was “Not Active” in each case. For the same molecule, the Ki result in assay [2] is given as “Not Active”.

Regarding `C[C@](N)(Cc1ccc(O)c(O)c1)C(=O)O` [METHYLDOPA], the IC50 result (in assay [1]; in assay [2]; against Adenosine receptor A3; at Melanocortin receptor 4; in assay [3]; against Histamine H2 receptor) was “Not Active” each time. For the same molecule, in assay [2], the inhibition constant (Ki) entry is listed as “Not Active”.
